# Reference: US20070010484A1, “Method for treating or inhibiting the effects of injuries or diseases that result in neuronal degeneration and method for promoting neurogenesis” (YEDA RESEARCH AND DEVELOPMENT CO. LTD., priority 2003, published 2007)
# What was measured:
# [1] = test system: retinal ganglion cells (RGCs); experiment: Chronically high intra-ocular pressure (laser-induced glaucoma) rat model, RGC survival; type: in vivo, Lewis rats; conditions: chronic IOP rats
# Source text: Induction of chronically high intra-ocular pressure: Blockage of aqueous outflow causes an increase in IOP, which results in RGC death (Schori et al., 2001 and Bakalash et al., 2002). […] The laser beam, which was directed at three of the four episcleral veins and at 270 degrees of the limbal plexus, was applied with a power of 1 watt for 0.2 s, producing a spot size of […] at the episcleral veins and […] at the limbal plexus. At a second laser session 1 week later, the same parameters were used except that the spot size was […] for all applications, this time the radiation was directed towards all four episcleral veins and 360 degrees of the limbal plexus (Schori et al., 2001).
# Anatomical assessment of retinal damage caused by the increase in IOP: The hydrophilic neurotracer dye dextran tetramethylrhodamine (Rhodamine Dextran) (Molecular Probes, Oreg., USA) was applied directly into the intra-orbital portion of the optic nerve. […] RGCs were counted under magnification of ×800 in a Zeiss fluorescent microscope. Four fields from each retina were counted, all with the same diameter (0.076 mm^2) and located at the same distance from the optic disc (Kipnis et al., 2001; and Yoles et al., 2001). […] RGCs were counted by an observer who was blinded to the identity of the retinas. […]
# [2] = test system: SOCS-3; experiment: Western blot of SOCS-3 in T cells; type: cell-based, human; conditions: T cells pretreated with CSPG-DS, relative to untreated T cells
# Protocol: Western blot analysis of T-cell nuclear extracts. Purified T cells (5×10^6) were preincubated for 2 h with different concentrations of CSPG-DS. The cells were then replated at the same CSPG-DS concentration on 24-well plates pre-coated for 24 h with anti-CD3 mAb. The T cells were lysed in 10 mM HEPES, 1.5 mM MgCl2, 1 mM dithiothreitol, 1 mM PMSF, and 0.5% Nonidet P-40 (buffer A). The lysates were incubated on ice for 10 min and centrifuged at 2000 rpm for 10 min at 4° C. The supernatants (cytoplasmic extracts) were transferred and the pellets (nuclei) were suspended in buffer containing 30 mM HEPES, 450 mM NaCl, 25% glycerol, 0.5 mM EDTA, 6 mM dithiothreitol, 12 mM MgCl2 1 mM PMSF, 10 μg/ml leupeptin, 10 μg/ml pepstatin, and 1% phosphatase inhibitor cocktail (buffer B), and the suspension was incubated on ice for 30 min. The lysates were cleared by centrifugation (30 min, 14×10^3 rpm, 4° C.), and the resulting supernatants were analyzed for protein content. Sample buffer was added, the mixture was boiled, and the samples containing equal amounts of proteins were separated on 10% SDS-PAGE gel and transferred to nitrocellulose membranes. […]
# [3] = test system: experimental autoimmune encephalomyelitis in mice; experiment: Experimental autoimmune encephalomyelitis (EAE); type: in vivo
# Protocol: Induction of experimental autoimmune encephalomyelitis. Mice were immunized s.c. at one site in the flank with 200 μl of emulsion consisting of myelin oligodendrocyte glycoprotein (MOG) […] (300 μg per mouse) emulsified in CFA supplemented with 500 μg of Mycobacterium tuberculosis (Difco, Detroit, Mich.). Clinical symptoms of experimental autoimmune encephalomyelitis (EAE) were examined and scored daily, as follows: 0, no clinical disease; 0.5, piloerection; 1, tail weakness; 1.5, tail paralysis; 2, hindlimb weakness; 3, hindlimb paralysis; 3.5, forelimb weakness; 4, forelimb paralysis; 5, moribund state or death.
# [4] = test system: TNF-α; experiment: TNF-α secretion by anti-CD3-activated T cells, ELISA; type: cell-based, human; conditions: 2 h pretreatment, then anti-CD3 activation 24 h
# [5] = test system: MHC II; experiment: MHC II expression in microglia; type: cell-based
# [6] = test system: human T cells; type: cell-based
# Protocol: T-cell apoptosis: T cells (2×10^6 cells/ml) were incubated for 2 h with the indicated concentrations of CSPG-DS in RPMI medium containing 10% FCS, and then plated on 24-well plates (non-tissue-culture grade) precoated with anti-CD3 mAb (1 μg/ml; overnight) and cultured for 72 h. The percentage of cells undergoing apoptosis was determined using the annexin V-detection assay (Bender MedSystem, San Bruno, Calif.). The cells were incubated for 10 min in the dark at room temperature in 200 μl of buffer containing FITC-conjugated human annexin V ([…]; Bender MedSystem, Propidium iodide (10 μl) was added to each sample, and the percentage of cells undergoing apoptosis was analyzed by FACS® at 525 nm using CELLQuest Software. Cells that stained positively for annexin V and negatively for propidium iodide corresponded to the apoptotic cells.
# [7] = test system: delayed-type hypersensitivity response in mice; experiment: Delayed-type hypersensitivity (DTH) assay, ear swelling; type: in vivo; conditions: oxazalone-sensitized Balb/c mice, most efficient concentration of 1 μg/ml, relative to untreated
# Protocol: Assay for delayed-type hypersensitivity. Groups of female inbred Balb/c mice (n=4 per group) were sensitized with 2% oxazalone (100 μl;) dissolved in acetone/olive oil (4:1 (vol/vol)) applied topically on the shaved abdominal skin. A delayed-type hypersensitivity (DTH) response was elicited 5 days later by challenge with 0.5% oxazalone in acetone/olive oil (10 μl applied topically to each side of one ear, and measured with an engineer's micrometer (Mitutoyo, Elk Grove Village, Ill., Tokyo, Japan)). Immediately before and 24 h after antigen challenge, the marked area was measured again.
# [8] = MOG-immunized mice, 5 μg injections on days 0, 3, 5 and 7
structure (smiles),measurement,setting,value
"CC(=O)N[C@H]1C(O)O[C@H](COS(=O)(=O)O)[C@H](O)[C@@H]1O[C@@H]1OC(C(=O)O)=C[C@H](O)[C@H]1O (stereo partly drawn) [CSPG-DS, 2-acetoamido-2-deoxy-3-O-(β-D-gluco-4-enepyranosyluronic acid)-6-O-sulfo-D-galactose]",viable RGCs per mm^2,"[1]; eye drops 20 μg/ml (5 x 50 μl), every other day between day 7 and day 14, counted at three weeks, n=6",1924±191 RGCs per mm^2
same,viable RGCs per mm^2,"[1]; intravenous, every other day between day 7 and day 14 after first laser session, n=5",2063±215 RGCs per mm^2
same,SOCS-3 level,[2],increase
same,duration of the disease (EAE),[3]; [8],shortened
same,symptoms of the disease (EAE score),[3]; [8],significantly attenuated
same,EAE disease with less frequent injections,"[3]; injection on day 0 only, or days 0 and 7",alleviated the disease
same,secretion of TNF-α,[4],significant reduction
same,MHC II expression in microglia,[5],activate microglia to express MHC II
same,viability of the T cells (apoptosis),[6],did not significantly affect
same,reduction in DTH response,[7],40%
